Laboratory results reported in patent US20240156861A1, “Cisplatin particles and uses thereof” (CRITITECH, INC., priority 2022, published 2024).
Several values for one entry are separate records, joined by “and”; a condition that tells them apart may be missing. Equal entries are not always repeated.

Columns and labels:
[1] = Blood platinum concentrations and PK parameters by ICP-MS in H69 xenograft mice; assay type: in vivo, female athymic nude mice; conditions: for Mean Blood Platinum Concentrations / Individual Blood Platinum Concentrations: Group 7: ~1.1 mg/kg IT on Days 1 and 16; for Individual Blood Platinum Concentrations: 1.1 mg/kg
Procedure: (§1) A total of 130 female athymic nude mice bearing the H69 human lung carcinoma xenograft were assigned to 10 treatment groups. Group 1 (N=5 females) served as the no treatment control. All intratumoral (IT) injections were delivered as single 25 μL injections. […] The maximum concentration of cisplatin solution and LSAM-Cisplatin suspension is 1 mg/mL and 10 mg/mL, respectively. The IT maximum feasible dose (MFD) for cisplatin solution is 25 μg and 250 μg for LSAM-Cisplatin suspension. Group 2 (N=10 females) was administered 47.5% ethanol/47.5% glycerin/5% water IT on Study Days 1 and 16 and served as control. Group 3 (N=20 females) received 133 μg cisplatin intraperitoneal (IP), considered the standard of care (SOC), once weekly for 3 cycles (Days 1, 8, and 15. Group 4 (N=5) was administered a single 125 μg large surface area microparticle (LSAM)-Cisplatin IT injection on Day 1. Group 5 (N=5 females) received a single 187.5 μg LSAM-Cisplatin IT injection on Day 1. Group 6 (N=5 females) was administered a single 250 μg LSAM-Cisplatin IT injection on Day 1. Group 7 (N=20 females) received single 25 μg cisplatin IT injections on Days 1 and 16. Group 8 (N=20 females) received single 125 μg LSAM-Cisplatin IT injections on Days 1 and 16. Group 9 (N=20 females) received single 187.5 μg LSAM-Cisplatin IT injections on Days 1 and 16. Group 10 (N=20 females) received single 250 μg LSAM-Cisplatin IT injections on Days 1 and 16. One hour postdose on Day 1, blood and tumor tissue were collected for determination of platinum concentrations from 3 Group 2 females and 5 females from Groups 3 and 7-10. On Days 8, 16 (predose) and 28, blood and tumor tissue were collected for determination of platinum concentrations from 5 females/Study Day from Groups 3 and 7-10. Total platinum concentrations in blood and tumor tissues were determined by inductively coupled plasma mass spectrometry (ICP-MS).
The LSAM-Cisplatin pharmacology study was conducted to: • Quantitate platinum content in whole blood and tumors to animals administered cisplatin IP (standard of care, SOC), the MFD of IT cisplatin, and IT LSAM- Cisplatin at the maximum feasible dose (MFD) and two lower doses • Evaluate tumor response • Evaluate increased doses of IT LSAM-Cisplatin up to 2X systemic maximum tolerated dose (MTD) • Evaluate one vs two injections • Evaluate recurrences if tumors regressed
Blood and tumor-site tissue were collected from each treatment group according to Table 4.
(§2) All blood and tumor-site tissue platinum concentrations that were reported as BLQ were considered as zero for statistical purposes. Mean and standard deviation are the only statistics reported for blood and tumor-site tissue platinum concentrations and platinum blood to tumor tissue ratios. Composite maximum observed concentration (Cmax), time of Cmax (Tmax), and area under the concentration-time curve (AUC) values for platinum in blood and tumor tissue following single and repeated administration of cisplatin or LSAM-Cisplatin are reported.

[2] = Platinum blood to tumor-site tissue concentration ratios in H69 xenograft mice; assay type: in vivo, female athymic nude mice; conditions: for Individual platinum blood to tumor-site tissue concentration ratio: individual animals
Procedure: as §1, §2
Platinum Cmax, Tmax, and AUC values for single-dose blood and tumor-site tissue data are provided in Table 8 and Table 9, respectively. Platinum Cmax, Tmax, and AUC values for multi-dose blood and tumor-site tissue data are provided in Table 10 and Table 11, respectively. Mean single-dose blood platinum concentrations are plotted in FIG. 20. Mean single-dose tumor-site tissue platinum concentrations are plotted in FIG. 21. Mean multiple-dose blood platinum concentration data are plotted in FIG. 22. Mean multiple-dose tumor-site tissue platinum concentration data are plotted in FIG. 23.

[3] = multiple doses, 6 mg/kg IP on Days 1, 8, and 15
[4] = multiple doses, ~1.1 mg/kg IT on Days 1 and 16
[5] = single dose Day 1, ~1.1 mg/kg IT

Which results are given for N.N.[Cl][Pt][Cl] [Cisplatin]?
Mean Blood Platinum Concentrations ([1]; Day 1 (1 hour postdose)): 189 ng/mL; Individual Blood Platinum Concentrations ([1]; Day 1 (1 hour postdose)): 160 ng/mL and 242 ng/mL and 181 ng/mL and 193 ng/mL and 171 ng/mL; Mean Blood Platinum Concentrations ([1]; Day 8): 57.6 ng/mL; Individual Blood Platinum Concentrations ([1]; Day 8): 69.9 ng/mL and BLQ (below the limit of quantitation (<50 ng/mL) and treated as zero for statistical purposes) and 86.7 ng/mL and 79 ng/mL and 52.6 ng/mL; Mean Blood Platinum Concentrations ([1]; Day 16 (predose)): 11.4 ng/mL; Individual Blood Platinum Concentrations ([1]; Day 16 (predose)): BLQ (below the limit of quantitation (<50 ng/mL) and treated as zero for statistical purposes) (4×) and 56.8 ng/mL; Mean Blood Platinum Concentrations ([1]; Day 28): 61.1 ng/mL; Individual Blood Platinum Concentrations ([1]; Day 28): 68.1 ng/mL and 68.3 ng/mL and 57.8 ng/mL and 57.4 ng/mL and 53.8 ng/mL; Blood Platinum AUC0-t [1, 3]: 486,824 ng · hr/mL; Blood Platinum Cmax [1, 3]: 1180 ng/mL; Blood Platinum Tmax [1, 3]: 384 h; Blood Platinum AUC0-t [1, 4]: 40,709 ng · hr/mL; Blood Platinum Cmax [1, 4]: 189 ng/mL; Blood Platinum Tmax [1, 4]: 1 h; Blood Platinum AUC0-192 ([1]; single dose Day 1, 6 mg/kg IP): 111,272 ng · hr/mL; Blood Platinum Cmax ([1]; single dose Day 1, 6 mg/kg IP): 793 ng/mL; Blood Platinum Tmax ([1]; single dose Day 1, 6 mg/kg IP): 1 h; Blood Platinum AUC0-192 [1, 5]: 23,645 ng · hr/mL; Blood Platinum AUC0-384 [1, 5]: 30,269 ng · hr/mL; Blood Platinum Cmax [1, 5]: 189 ng/mL; Blood Platinum Tmax [1, 5]: 1 h; Individual platinum blood to tumor-site tissue concentration ratio ([2]; Group 3, 6 mg/kg cisplatin IP on Days 1, 8, and 15, sampling Day 1): 1.084 and 0.775 and 0.134 and 0.994; Mean platinum blood to tumor-site tissue concentration ratio ([2]; Group 3, 6 mg/kg cisplatin IP on Days 1, 8, and 15, sampling Day 1, N=4): 0.747; Individual platinum blood to tumor-site tissue concentration ratio ([2]; Group 3, 6 mg/kg cisplatin IP on Days 1, 8, and 15, sampling Day 16): 1.174 and 1.120 and 1.000 and 0.424 and 1.188; Mean platinum blood to tumor-site tissue concentration ratio ([2]; Group 3, 6 mg/kg cisplatin IP on Days 1, 8, and 15, sampling Day 16, N=5): 0.981; Individual platinum blood to tumor-site tissue concentration ratio ([2]; Group 3, 6 mg/kg cisplatin IP on Days 1, 8, and 15, sampling Day 28): 0.506 and 0.267; Mean platinum blood to tumor-site tissue concentration ratio ([2]; Group 3, 6 mg/kg cisplatin IP on Days 1, 8, and 15, sampling Day 28, N=2): 0.386; Individual platinum blood to tumor-site tissue concentration ratio ([2]; Group 7, ~1.1 mg/kg cisplatin IT on Days 1 and 16, sampling Day 1, 1.1 mg/kg): 0.011 and 0.018 and 0.019 and 0.022 and 0.016; Mean platinum blood to tumor-site tissue concentration ratio ([2]; Group 7, ~1.1 mg/kg cisplatin IT on Days 1 and 16, sampling Day 1, N=5): 0.017; Individual platinum blood to tumor-site tissue concentration ratio ([2]; Group 7, ~1.1 mg/kg cisplatin IT on Days 1 and 16, sampling Day 8, 1.1 mg/kg): 0.023 and 0.000 and 0.020 and 0.026 and 0.053; Mean platinum blood to tumor-site tissue concentration ratio ([2]; Group 7, ~1.1 mg/kg cisplatin IT on Days 1 and 16, sampling Day 8, N=5): 0.024; Individual platinum blood to tumor-site tissue concentration ratio ([2]; Group 7, ~1.1 mg/kg cisplatin IT on Days 1 and 16, sampling Day 16, 1.1 mg/kg): 0.000 (3×) and 0.023; Mean platinum blood to tumor-site tissue concentration ratio ([2]; Group 7, ~1.1 mg/kg cisplatin IT on Days 1 and 16, sampling Day 16, N=4): 0.006; Individual platinum blood to tumor-site tissue concentration ratio ([2]; Group 7, ~1.1 mg/kg cisplatin IT on Days 1 and 16, sampling Day 28, 1.1 mg/kg): 0.003 and 0.008 and 0.009 and 0.007 and 0.025; Mean platinum blood to tumor-site tissue concentration ratio ([2]; Group 7, ~1.1 mg/kg cisplatin IT on Days 1 and 16, sampling Day 28, N=5): 0.010; systemic exposure to platinum based on mean blood to tumor-site tissue ratios ([2]; repeated IT administration of 1.1 mg/kg): negligible
